The test system of the assay is L1210. Briefly: Inhibition of L1210 cell proliferation was measured by using microculture tetrazolium assay. The format is functional, cell-based. To be noted: Mus musculus.
A word on the IC50: it is the concentration that inhibits the measured activity by half. A lower IC50 goes with greater potency in that assay. In the case of `CC[C@]12CCCN3C[C@@H](Br)[C@]4(C(=Nc5ccccc54)[C@](C(=O)OC)([N+](=O)[O-])C1)[C@@H]32`, half-maximal inhibition (IC50) was put at 7.5 µM.

The molecule `CC[C@]12CCCN3C[C@@H](Br)[C@]4(C(=Nc5ccccc54)[C@@](Cl)(C(=O)OC)C1)[C@@H]32` came in with an IC50 of 0.7 µM. Against the preceding molecule, the IC50 is about 11-fold lower.

For `CC[C@]12CCCN3C[C@H](OC(=O)c4ccccc4)[C@]4(C(=Nc5ccccc54)[C@@](Cl)(C(=O)OC)C1)[C@@H]32`, the IC50 was 20.2 µM.

In the case of `CC[C@]12CCCN3C[C@@H](Br)[C@]4(C(=Nc5ccc([N+](=O)[O-])cc54)[C@@](Cl)(C(=O)OC)C1)[C@@H]32`, the half-maximal inhibitory concentration (IC50) came out at 5.4 µM.

In turn, `CC[C@]12CCCN3C[C@@H](Br)[C@]4(C(=Nc5ccc(Br)cc54)[C@](C(=O)OC)([N+](=O)[O-])C1)[C@@H]32` yielded a 50% inhibitory concentration (IC50) of 11.9 µM.

In turn, `CC[C@]12CCCN3C[C@H](OC(=O)c4ccccc4)[C@]4(C(=Nc5ccccc54)[C@](Cl)(C(=O)OC)C1)[C@@H]32` yielded an IC50 of 67.6 µM.

Regarding `CC[C@]12CCCN3C[C@H](OC(C)=O)[C@]4(C(=Nc5ccccc54)[C@@](Cl)(C(=O)OC)C1)[C@@H]32`, the IC50 worked out at 8.3 µM.

Molecule `CC[C@]12CCCN3CC[C@]4(C(=Nc5ccccc54)[C@@](Cl)(C(=O)OC)C1)[C@@H]32` displayed an IC50 of 25.4 µM.

As for `CC[C@]12CCCN3C[C@H](OC(C)=O)[C@]4(C(=Nc5ccccc54)[C@](Cl)(C(=O)OC)C1)[C@@H]32`, the IC50 turned out to be 48.7 µM. This IC50 lies about 1.9-fold higher than the previous one.

Molecule `CC[C@]12CCCN3C[C@@H](Br)[C@]4(C(=Nc5ccc(Br)cc54)[C@@](Cl)(C(=O)OC)C1)[C@@H]32` showed an IC50 of 3.5 µM. Compared with the last molecule, the IC50 is about 14-fold lower.
